# Experimental data as given in patent US5260451A, “Substituted pyrrole compounds and use thereof in pharmaceutical compositions” (priority 1989, dated 1993).
# Target: T1, 5-lipoxygenase (Bos taurus, UniProt F1MQ78)
# T1 construct: The source for 5-lipoxygenase were bovine granulocytes; endogenous in cells; host or cells: granulocytes isolated from EDTA-anticoagulated bovine blood
# T1 sequence (F1MQ78 1-674): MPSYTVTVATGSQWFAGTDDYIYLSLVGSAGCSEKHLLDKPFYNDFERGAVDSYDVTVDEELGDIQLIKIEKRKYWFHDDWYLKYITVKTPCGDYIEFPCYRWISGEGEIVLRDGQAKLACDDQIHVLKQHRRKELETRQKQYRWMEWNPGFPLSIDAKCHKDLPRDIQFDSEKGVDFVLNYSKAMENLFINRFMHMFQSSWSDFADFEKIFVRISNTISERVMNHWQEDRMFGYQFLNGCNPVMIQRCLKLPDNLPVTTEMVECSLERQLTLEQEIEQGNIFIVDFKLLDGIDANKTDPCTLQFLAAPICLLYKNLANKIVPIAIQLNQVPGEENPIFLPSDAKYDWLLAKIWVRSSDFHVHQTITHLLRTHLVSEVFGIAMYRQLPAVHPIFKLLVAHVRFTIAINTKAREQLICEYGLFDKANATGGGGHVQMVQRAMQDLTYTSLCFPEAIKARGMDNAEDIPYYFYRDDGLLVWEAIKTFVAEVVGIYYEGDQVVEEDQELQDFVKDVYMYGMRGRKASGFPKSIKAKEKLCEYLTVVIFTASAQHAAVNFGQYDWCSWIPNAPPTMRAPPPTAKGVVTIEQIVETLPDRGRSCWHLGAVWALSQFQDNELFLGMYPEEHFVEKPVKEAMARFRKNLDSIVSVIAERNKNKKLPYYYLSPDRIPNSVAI
# Assay: inhibition of 5-lipoxygenase (LTB4 formed by calcium-ionophore stimulated bovine granulocytes)
# Assay type: cell-based
# Conditions: Table 1
# Protocol: The effectiveness of the compounds of the invention can be determined by means of the inhibition of 5-lipoxygenase or of cyclo-oxygenase. The research was carried out as follows: The source for 5-lipoxygenase were bovine granulocytes which can form leucotrienes just as human granulocytes do. By stimulation with calcium-ionophore (see BIOCHEM. BIOPHYS. ACTA 1984, 795, pp 499-503), mainly LTC4 (leucotriene C4) and LTB4 (leucotriene B4) are formed from endogenous arachidonic acid. The isolation of the granulocytes and the implementation of the enzyme reaction are conventional (see BIOCHEM. BIOPHYS. ACTA 1984, 795 pp 499-503). The blood protected against clotting by EDTA first is centrifuged for that purposed and the thrombotic excess is removed. Following lysis of the erythrocytes with water the lymphocytes and monocytes are separated from the granulocytes by means of a Ficoll gradient. The granulocytes are set to a specific cell number. The enzyme reaction is then begun in the presence or absence of the test substances following the addition of Ca^2+ with calcium ionophore. The synthesis of the leucotrienes is stopped after 5 minutes by adding a mixture of methanol and acetonitrile containing PGB2 as the internal standard and NDGA as the anti-oxidant. Next the samples are diluted in water and processed in the manner described in J. CHROMATOGR. […], 378, pp 208-214. LTB4 is measured at the absorption maximum at 270 nm. The arachidonic acid metabolites are observed present in this research in approximately quantitative manner. Tables 1 and 2 list the test results for the compounds of the invention, The test substances were at concentrations of 10 μM.
row,inhibition at 10 µM [%],Compound
1,93,"CC1(C)Cc2c(CCC(=O)O)c(-c3ccccc3)c(-c3ccccc3)n2C1 [(CH2)2 CO2 H, Phenyl, Phenyl, CH3, CH3]"
2,86,"O=C(O)CCCCc1c(-c2ccccc2)c(-c2ccccc2)n2c1CCC2 [(CH2)4 CO2 H, Phenyl, Phenyl, H, H]"
3,96,"CC1(C)Cc2c(CCCCCC(=O)O)c(-c3ccccc3)c(-c3ccccc3)n2C1 [(CH2)5 CO2 H, Phenyl, Phenyl, CH3, CH3]"
4,86,"O=C(O)CCCCCc1c(-c2ccccc2)c(-c2ccccc2)n2c1CCC2 [(CH2)5 CO2 H, Phenyl, Phenyl, H, H]"
5,82,"O=C(O)CCCCc1c(-c2ccccc2)c2n(c1-c1ccccc1)CCC2 [Phenyl, (CH2)4 CO2 H, Phenyl, H, H]"
6,80,"O=C(O)CCCCCc1c(-c2ccccc2)c2n(c1-c1ccccc1)CCC2 [Phenyl, (CH2)5 CO2 H, Phenyl, H, H]"
7,80,"O=C(O)/C=C/c1c(-c2ccccc2)c(-c2ccccc2)c2n1CCC2 [Phenyl, Phenyl, CHCHCO2 H, H, H]"
8,94,"O=C(O)CCc1c(-c2cccc3ccccc23)c(-c2ccccc2)c2n1CCC2 [Phenyl, α-naphthyl, (CH2)2 CO2 H, H, H]"

# More lines, now with the values behind:
row,Compound,inhibition at 10 µM [%]
1,O=C(O)CCc1c(-c2cccc(Cl)c2)c(-c2ccccc2)c2n1CCC2,89
2,O=C(O)CCc1c(-c2ccc(Cl)cc2)c(-c2ccccc2)c2n1CCC2,98
3,COc1ccc(-c2c(-c3ccccc3)c3n(c2CCC(=O)O)CCC3)cc1,91
4,O=C(O)CCc1c(-c2ccc(Oc3ccccc3)cc2)c(-c2ccccc2)c2n1CCC2,98
5,"CC1(C)Cc2c(C=CC(=O)O)c(-c3ccccc3)c(-c3ccccc3)n2C1 [CHCHCO2 H, Phenyl, Phenyl, CH3, CH3]",91
6,"CCCCCCc1c(-c2ccccc2)c2n(c1C=CC(=O)O)CCC2 [Phenyl, C6 H13, CHCHCO2 H, H, H, 3-(6-(n-HEXYL)-7-PHENYL-2,3-DIHYDRO-1h-PYRROLIZINE-5-YL)-ACRYLIC ACID]",82
7,"CC1(C)Cc2c(-c3ccccc3)c(-c3ccccc3)c(CCC(=O)O)n2C1 [Phenyl, Phenyl, (CH2)2 CO2 H, CH3, CH3]",91
8,"CC1(C)Cc2c(-c3ccccc3)c(-c3ccccc3)c(CC(=O)O)n2C1 [Phenyl, Phenyl, CH2 CO2 H, CH3, CH3, (2,2-dimethyl-6,7-diphenyl-2,3-dihydro-1H-pyrrolizine-5-yl)-acetic acid]",94
9,"Cc1ccc(-c2c(-c3ccccc3)c3n(c2CCC(=O)O)CCC3)cc1 [Phenyl, p-Tolyl, (CH2)2 CO2 H, H, H]",92

# Same assay, conditions: Table 2
row,inhibition at 10 µM [%],Compound
1,97,Cc1c(-c2ccccc2)c(-c2ccccc2)c(CCC(=O)O)n1CC(C)(C)C
2,94,CCCCn1c(C)c(-c2ccccc2)c(-c2ccccc2)c1CCC(=O)O
3,99,CCCCCn1c(C)c(-c2ccccc2)c(-c2ccccc2)c1CCC(=O)O
4,99,CCCCCCn1c(C)c(-c2ccccc2)c(-c2ccccc2)c1CCC(=O)O

# Target: T1, 5-lipoxygenase
# Assay: as above
# Assay type: cell-based
# Conditions: Table 1, 3,3 μM
row,inhibition at 3 µM [%],Compound
1,98,"CC1(C)Cc2c(-c3ccccc3)c(-c3ccc(Oc4ccccc4)cc3)c(CCC(=O)O)n2C1 [3-(2,2-dimethyl-6-(4-phenoxyphenyl)-7-phenyl-2,3-dihydro-1H-pyrrolizine-5-yl) propionic acid]"

# Target: T2, cyclo-oxygenase (Bos taurus, UniProt O62664)
# T2 construct: formed by bovine thrombocytes following addition of calcium ionophore; endogenous in cells; host or cells: thrombocytes isolated from the supernatant of centrifuged bovine blood
# T2 sequence (O62664 25-600): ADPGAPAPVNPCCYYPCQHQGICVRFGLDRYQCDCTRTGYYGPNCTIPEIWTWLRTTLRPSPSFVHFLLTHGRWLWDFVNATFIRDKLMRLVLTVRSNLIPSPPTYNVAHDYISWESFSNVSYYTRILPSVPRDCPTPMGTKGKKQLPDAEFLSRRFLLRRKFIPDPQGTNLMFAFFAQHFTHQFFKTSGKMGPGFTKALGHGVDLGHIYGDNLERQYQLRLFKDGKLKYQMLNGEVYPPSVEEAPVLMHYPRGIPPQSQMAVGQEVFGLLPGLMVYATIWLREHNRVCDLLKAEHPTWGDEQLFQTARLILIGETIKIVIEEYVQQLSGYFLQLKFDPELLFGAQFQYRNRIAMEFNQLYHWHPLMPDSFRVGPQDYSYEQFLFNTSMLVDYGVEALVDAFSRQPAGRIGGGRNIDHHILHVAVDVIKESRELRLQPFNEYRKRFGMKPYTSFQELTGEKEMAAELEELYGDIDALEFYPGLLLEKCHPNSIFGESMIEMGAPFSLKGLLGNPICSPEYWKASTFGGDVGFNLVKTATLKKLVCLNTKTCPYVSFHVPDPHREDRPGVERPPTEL
# Assay: inhibition of cyclo-oxygenase (12-HHT or prostaglandin E2 formed by calcium-ionophore stimulated bovine thrombocytes)
# Assay type: cell-based
# Conditions: Table 1, read-out: INHIBITION % Cyclooxygenase
# Protocol: The effectiveness of the compounds of the invention can be determined by means of the inhibition of 5-lipoxygenase or of cyclo-oxygenase. The research was carried out as follows:
# In this test the 12-HHT amount of 12-hydroxyheptadecatriene acid or prostaglandin E2 amount formed by bovine thrombocytes following addition of calcium ionophore is determined by uv detection following HPLC separation. Following centrifuging of the bovine blood, the thrombocytes are isolated from the surnatant. The enzyme reaction and the isolation of the formed metabolites take place as when determining the 5-lipoxygenase inhibition, however the incubation time was one minute. The detection of 12 HHT following HPLC separation takes place at 232 nm.
# Tables 1 and 2 list the test results for the compounds of the invention, The test substances were at concentrations of 10 μM.
row,inhibition at 10 µM [%],Compound
1,70,O=C(O)CCc1c(-c2ccc(Oc3ccccc3)cc2)c(-c2ccccc2)c2n1CCC2
2,97,"CC1(C)Cc2c(-c3ccccc3)c(-c3ccccc3)c(CCC(=O)O)n2C1 [Phenyl, Phenyl, (CH2)2 CO2 H, CH3, CH3]"
3,99,"CC1(C)Cc2c(-c3ccccc3)c(-c3ccccc3)c(CC(=O)O)n2C1 [Phenyl, Phenyl, CH2 CO2 H, CH3, CH3, (2,2-dimethyl-6,7-diphenyl-2,3-dihydro-1H-pyrrolizine-5-yl)-acetic acid]"
4,91,"O=C(O)Cc1c(-c2ccccc2)c(-c2ccccc2)c2n1CCC2 [Phenyl, Phenyl, CH2 CO2 H, H, H]"
